Source: patent US9193673B2, “Derivatives of mesalazine, process of their preparation and their use in the treatment of intestinal inflammatory diseases” (SOFAR SPA, priority 2010, dated 2015)

Columns and labels:
[1] = Stability in rat plasma (hydrolysis by plasma esterases); type: in vitro ADME
Experimental: Such study is conducted with the aim of evaluating possible hydrolysis of the compound (IV) by the plasma esterases. The percentage of hydrolysis of the compound (IV) is compared to that of known reference standards.

DSS-induced colitis = DSS-induced colitis model; type: in vivo; conditions: DSS 3% C57BL/6 mice
From the text: Experimental colitis models, such as the dextran sodium sulphate (DSS) model, are routinely available in our laboratory (1, 2). […] DSS-induced inflammation of the colon originates in the distal colon, progressing to involve the whole colon and in severe cases the caecum. In addition, the inflammation is confined to the mucosa and is generally not transmural. Furthermore, DSS-induced inflammation is not dependent on the presence of any specific intestinal bacterial flora.
Colon inflammation has been induced in C57BL/6 mice by the administration of DSS in the drinking water at concentrations of 3%, for 5 days.
Different parameters have been measured to test the efficacy of the selected compounds which are: • Clinical evaluation: daily recording weight and clinical activity (anal bleeding, presence of diarrhoea). This parameter has been quantified as percentage of body weight and DAI (Disease Activity Index) relating to anal bleeding and presence of diarrhoea. The lower the DAI is, the lower the anal bleeding is, thus better the therapeutic effect is. • Endoscopic evaluation: mice underwent endoscopy at the end of the treatment. This step is very important as most of the drugs used in human inflammatory bowel disease aim to achieve mucosal healing. • Histological colitis assessment: mice have been sacrificed at the end of the treatment, colons have been removed and histopathological analysis has been performed to assess the extent of tissue damage and recruitment of immune cells.
The therapeutic effect has been evaluated with different experimental procedures (a)-c)) representing either the active phase (a)) or the remission phase (b)-c)) of an intestinal inflammatory disease at different doses: • a) treatment of acute phase at 200 mg/kg/day • b) treatment of remission phase at 50 mg/kg/day • c) treatment of remission phase at 100 mg/kg/day […]

% Residue at 60 min ([1]; Rat plasma, 60 min): 8.5 ± 2.0%
Hydrolysis in plasma ([1]; murine plasma): high hydrolysis percentage
% hydrolysed ([1]; murine plasma, after 1 hour of incubation): 91.5%
SMILES: CCCC(=O)Oc1ccc(N)cc1C(=O)O.Cl [Compound (IV), 5-amino-2-(butyryloxy)benzoic acid]
Therapeutic efficiency (DAI, endoscopic and histological scores) (DSS-induced colitis; a) acute (active) phase, 200 mg/kg/day orally): comparable therapeutic efficiency
Therapeutic activity (DAI, endoscopic and histological scores) vs 5-ASA, butyric acid, and their combined administration (DSS-induced colitis; b) remission phase, 50 mg/kg/day orally): better therapeutic activity
Therapeutic activity (DAI, endoscopic and histological scores) vs 5-ASA, butyric acid, and their combined administration (DSS-induced colitis; c) remission phase, 100 mg/kg/day orally): better therapeutic activity
